In general, NOAEL refers to the highest dose or exposure tested at which no adverse effect was seen.

The source of these data is EPA's ToxValDB 9.5 (doi:10.2903/j.efsa.2009.195r).

In brackets after ≈: the same amount, converted by molar mass.

Data set [1] deals with Anas platyrhynchos. To be noted: oral, mortality.
Data set [2] relates to Apis mellifera. The settings on record: acute; duration: 48 hours; oral; unspecified; mortality.
The subject of data set [3] is Oncorhynchus mykiss.
In data set [4] the test system is Colinus virginianus.
Data set [5] relates to Rattus norvegicus.
Data set [6] has as its system Tagia sp.
Data set [7] relates to Daphnia magna. To be noted: chronic/long-term; duration: 21 days; reproduction.

For the molecule `COC(=O)c1cccc(C)c1S(=O)(=O)NC(=O)Nc1nc(OCC(F)(F)F)nc(N(C)C)n1` [Triflusulfuron-methyl], the LD50 was above 2250 mg/kg-day in data set [1] (acute, unspecified); above 100 µg/piece in data set [2]; above 2250 mg/kg-day in data set [4] (acute, oral, mortality); above 5000 mg/kg-day in data set [5] (acute, oral, mortality). In addition, the LC50 was above 1540 mg/kg-day in data set [1] (short-term, feed); 730 µg/mL (≈ 1480 µM) in data set [3] (acute, duration: 96 hours, mortality); 1000 mg/kg in data set [6] (acute, duration: 14 days, mortality). Further, the NOEC in data set [3] (chronic/long-term, duration: 97 days, growth) turned out to be 57.7 mg/L; in data set [4] (reproduction developmental) it was 27.6 mg/kg-day; in data set [6] (chronic/long-term, duration: 56 days), 250 mg/kg; in data set [7] it was 11 mg/L. The NOAEL turned out to be 4.06 mg/kg-day in data set [5] (chronic, duration: 2 years, oral, diet, body weight); 120 mg/kg-day in data set [5] (developmental, development); 5.8 mg/kg-day in data set [5] (reproduction developmental, body weight); 6.6 mg/kg-day in data set [5] (subchronic, duration: 90 days, oral, body weight).
